From patent publication US20040072811A1, “Use of antiprogestins for the induction of apoptosis in a cell” (priority 2000, published 2004)
“Also recorded” adds a separate entry of the source.

Assays:
T47D cells = assay: Antiproliferative activity in vitro in the T47D cell line (estradiol-stimulated, crystal violet); format: cell-based, human; details: 0.1 nM estradiol, 6 days
Procedure: T47D cells were grown in charcoal-treated serum supplemented with 0.1 nM E2 (estradiol) plus antiprogestin (I) for 6 days with one medium change. Following fixation and subsequent staining with crystal violet, the absorbance was recorded and values normalized to the absorbance of untreated controls as described in R. B. Lichtner, J. Steroid Biochem. Mol. Biol. 1999, 71; 181-189. The TUNEL assay is performed analogous to above Example 5 with the only difference that instead of tissue sections cells that are cultivated on microscopic slides are used for the assay.

[1] = tested on: NMU-induced mammary carcinoma of the rat; assay: Tumor growth inhibition in NMU-induced breast cancer model in rat; format: in vivo, Sprague-Dawley rats; details: 5 mg/kg/day, 4 weeks
Procedure: Tumors were induced by a single intravenous injection of NMU (nitrosomethylurea, 50 mg/kg) in female Sprague-Dawley rats (obtained from Tierzucht Schönwalde, age 50-55 days). Starting 10 days later, rats with at least one established tumor were treated for 4 weeks by: 1) solvent control, 2) ovariectomy at treatment start, 3) antiprogestin (I), 1.0 mg/kg/day, 4) antiprogestin (1), 0.5 mg/kg/day and 5) onapristone, 5 mg/kg/day. As a parameter for growth inhibition the change of tumor area (in % of initial tumor size) determined by weekly caliper measurements was used. For statistical analysis of intergroup differences of mean values the Kruskal-Wallis-test was used.

[2] = tested on: DMBA-induced mammary carcinoma of the rat; assay: Dose-response study in the DMBA-induced mammary tumor model; format: in vivo, Sprague-Dawley rats; details: 5 mg/kg s.c. daily, 4 weeks
Procedure: Immature female Sprague-Dawley rats (49-51 days old; 10 animals/group) were used in this study. Mammary tumors were induced by a single oral administration of 10 mg 7,12-dimethylbenz[a]anthracene (DMBA, Serva/Heidelberg). Rats with at least one established tumor with a size of more than 150 mm^2 were treated for 4 weeks by: 1) solvent control, 2) ovariectomy at treatment start, 3) antiprogestin (I), 0,5 mg/kg s.c., 4) antiprogestin (1), 2 mg/kg s.c., 5) antiprogestin (I), 5 mg/kg s.c., 6) antiprogestin (1), 10 mg/kg s.c., and 7) onapristone, 5 mg/kg, s.c., daily. As a parameter for growth inhibition the change of tumor area (in % with respect to initial tumor size) determined by weekly caliper measurements was used. For statistical analysis of intergroup differences of mean values the Kruskal-Wallis-test was used. For a further description and evaluation of the DMBA prevention model, see R. G. Metha, European Journal of Cancer 36 (2000), pp. 1275-1282.

**Q.** With CN(CCCCC[C@@H]1Cc2cc(O)ccc2[C@@H]2[C@@H]1[C@@H]1CC[C@H](O)[C@@]1(C)C[C@@H]2F)CCCSCCCC(F)(F)C(F)(F)F [11β-fluoro-7α-{5-[N-methyl-N-3-(4,4,5,5,5-pentafluoropentylthio)-propylamino]-pentyl}-estra-1,3,5(10)-trien-3,17β-diol] as the compound, how does the “inhibition of estradiol-stimulated T47D cell growth” value (T47D cells) read?
**A.** The value was “distinctly less effective than antiprogestin (I)”.

**Q.** Which “inhibition of estradiol-stimulated T47D cell growth” value (T47D cells) does the source give for CN(C)c1ccc([C@H]2C[C@]3(C)[C@@H](CC[C@]3(O)CCCO)[C@@H]3CCC4=CC(=O)CCC4=C32)cc1 [onapristone, reference compound] here?
**A.** Its value is “did not show any inhibiting effect; also recorded: no reducing effect on cell growth”.

**Q.** And the “tumor growth inhibiting effect relative to antiprogestin (I) at 0.5 mg/kg” value [1]?
**A.** Its value is “distinctly less effective than antiprogestin (1)”.

**Q.** And the “tumor growth inhibiting effect relative to antiprogestin (I)” value [2]?
**A.** The value was “distinctly less effective than antiprogestin (I)”.
